Reference: US20250129078A1, “ERBB2 INHIBITORS” (Cogent Biosciences, Inc., priority 2023, published 2025)
Where a name gives a salt, the structure may show the parent alone.

Columns and labels:
ErbB2 V777L = ErbB2 V777L (Homo sapiens (Human), UniProt P04626, V777L); assay: ErbB enzyme assay (CisBio HTRF-KinEASE-TK), ErbB2 V777L; assay type: biochemical
Summary of the method: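 HTRF KinEASE-TK tyrosine-kinase read-out of substrate phosphorylation after a final 1 h at ambient temperature, from the 655/620 nm emission ratio.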

EGFR WT = EGFR WT (Homo sapiens (Human), UniProt P00533); assay: ErbB enzyme assay (CisBio HTRF-KinEASE-TK), EGFR WT; assay type: biochemical; settings: ATP at Km (25 μM), 1 h incubation
Summary of the method: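 HTRF KinEASE-TK kinase reactions ran 1 h at ambient temperature with three-fold serial compound dilutions, then were quenched with Sa-XL665 and TK-Ab-Cryptate. After 1 h more, 655/620 nm time-resolved fluorescence gave percent of control; a 4-parameter logistic fit defined IC50 at 50 POC.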

Chain of ErbB2 V777L (P04626 23-1255 V777L): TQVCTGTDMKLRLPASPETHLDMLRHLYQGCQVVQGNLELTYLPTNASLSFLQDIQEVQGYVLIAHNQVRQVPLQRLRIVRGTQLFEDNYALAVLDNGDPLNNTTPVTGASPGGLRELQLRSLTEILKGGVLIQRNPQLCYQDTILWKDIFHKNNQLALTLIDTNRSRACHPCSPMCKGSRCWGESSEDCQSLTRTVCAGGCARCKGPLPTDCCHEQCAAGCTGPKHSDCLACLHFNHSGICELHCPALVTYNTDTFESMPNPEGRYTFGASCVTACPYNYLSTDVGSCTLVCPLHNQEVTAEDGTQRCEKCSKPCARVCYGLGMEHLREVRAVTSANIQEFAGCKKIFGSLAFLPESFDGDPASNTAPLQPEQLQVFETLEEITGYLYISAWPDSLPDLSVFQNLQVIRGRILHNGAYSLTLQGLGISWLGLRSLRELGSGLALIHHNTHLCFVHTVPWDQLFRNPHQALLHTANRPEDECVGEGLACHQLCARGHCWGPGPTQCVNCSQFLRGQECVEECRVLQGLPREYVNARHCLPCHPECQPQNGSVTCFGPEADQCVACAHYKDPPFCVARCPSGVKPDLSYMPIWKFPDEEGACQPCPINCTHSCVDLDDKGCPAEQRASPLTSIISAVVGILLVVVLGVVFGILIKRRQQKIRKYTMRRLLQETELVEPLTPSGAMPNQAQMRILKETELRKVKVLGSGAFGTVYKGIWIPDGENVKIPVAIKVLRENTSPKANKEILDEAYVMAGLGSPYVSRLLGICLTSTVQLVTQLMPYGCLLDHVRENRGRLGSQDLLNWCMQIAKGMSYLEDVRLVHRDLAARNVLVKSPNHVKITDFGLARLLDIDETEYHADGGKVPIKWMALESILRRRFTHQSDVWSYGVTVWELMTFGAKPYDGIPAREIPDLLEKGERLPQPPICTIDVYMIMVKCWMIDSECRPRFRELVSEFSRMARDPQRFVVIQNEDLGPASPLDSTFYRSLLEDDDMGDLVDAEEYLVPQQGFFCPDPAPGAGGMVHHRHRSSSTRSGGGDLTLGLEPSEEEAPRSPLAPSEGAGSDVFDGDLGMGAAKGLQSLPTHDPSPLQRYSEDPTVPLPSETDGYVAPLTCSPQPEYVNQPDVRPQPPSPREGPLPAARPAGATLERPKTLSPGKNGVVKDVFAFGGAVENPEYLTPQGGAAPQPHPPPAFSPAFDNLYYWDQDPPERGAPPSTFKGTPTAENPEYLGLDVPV
Chain of EGFR WT (P00533 25-1210): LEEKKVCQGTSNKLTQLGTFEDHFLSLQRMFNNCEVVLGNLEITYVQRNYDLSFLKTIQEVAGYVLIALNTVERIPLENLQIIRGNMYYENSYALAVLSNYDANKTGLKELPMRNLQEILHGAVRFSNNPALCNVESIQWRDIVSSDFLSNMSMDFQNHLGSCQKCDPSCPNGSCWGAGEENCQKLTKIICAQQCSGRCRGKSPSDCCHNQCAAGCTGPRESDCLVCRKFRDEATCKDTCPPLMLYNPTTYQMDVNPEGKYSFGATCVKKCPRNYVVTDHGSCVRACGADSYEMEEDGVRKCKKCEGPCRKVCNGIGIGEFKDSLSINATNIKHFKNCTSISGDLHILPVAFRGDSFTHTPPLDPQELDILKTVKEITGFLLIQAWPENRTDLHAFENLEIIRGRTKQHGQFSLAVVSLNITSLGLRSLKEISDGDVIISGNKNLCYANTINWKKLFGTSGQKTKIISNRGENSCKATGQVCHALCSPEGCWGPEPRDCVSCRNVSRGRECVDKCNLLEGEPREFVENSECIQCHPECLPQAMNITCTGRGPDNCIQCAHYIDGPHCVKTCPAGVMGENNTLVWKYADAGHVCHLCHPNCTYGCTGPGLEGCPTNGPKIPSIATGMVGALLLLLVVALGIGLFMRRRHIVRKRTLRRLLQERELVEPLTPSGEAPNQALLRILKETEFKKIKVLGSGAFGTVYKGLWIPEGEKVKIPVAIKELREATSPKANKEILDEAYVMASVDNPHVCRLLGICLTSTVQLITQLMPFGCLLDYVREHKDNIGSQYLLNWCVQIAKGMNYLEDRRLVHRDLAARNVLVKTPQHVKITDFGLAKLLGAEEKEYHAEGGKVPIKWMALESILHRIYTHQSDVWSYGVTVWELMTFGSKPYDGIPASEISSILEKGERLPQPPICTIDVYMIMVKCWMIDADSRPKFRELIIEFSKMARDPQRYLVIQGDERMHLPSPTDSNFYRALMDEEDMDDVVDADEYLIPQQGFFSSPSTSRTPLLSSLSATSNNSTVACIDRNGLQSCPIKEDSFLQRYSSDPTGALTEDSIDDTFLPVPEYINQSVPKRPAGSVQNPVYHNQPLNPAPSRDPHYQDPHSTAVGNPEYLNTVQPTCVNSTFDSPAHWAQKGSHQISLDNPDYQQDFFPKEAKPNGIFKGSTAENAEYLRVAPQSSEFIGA

IC50 (ErbB2 V777L)	IC50 (EGFR WT)	SMILES
100 to 500 nM	500 to 1000 nM	C=CC(=O)N1C[C@@H](N(C)c2ccc3ncnc(Nc4ccc(Oc5ccc6c(c5)nnn6C)c(C)c4)c3n2)C[C@H]1C [Compound 351, 1-((2R,4S)-2-methyl-4-(methyl(4-((3-methyl-4-((1-methyl-H-benzo[d][1,2,3]triazol-5-yl)oxy)phenyl)amino)pyrido[3,2-d]pyrimidin-6-yl)amino)pyrrolidin-1-yl)prop-2-en-1-one]
100 to 500 nM	100 to 500 nM	C=CC(=O)N1CCN(c2ccc3ncnc(Nc4ccc(Oc5ccc6c(c5)nnn6C)c(C)c4)c3n2)C[C@H]1CC [Compound 294, (R)-1-(2-ethyl-4-(4-((3-methyl-4-((1-methyl-1H-benzo[d][1,2,3]triazol-5-yl)oxy)phenyl)amino)pyrido[3,2-d]pyrimidin-6-yl)piperazin-1-yl)prop-2-en-1-one]
100 to 500 nM	500 to 1000 nM	C=CC(=O)NC1CC2(C1)CN(c1ncc3ncnc(Nc4ccc(Oc5ccc6c(c5)nnn6C)c(C)c4)c3n1)C2 [Compound 225, N-(2-(8-((3-methyl-4-((1-methyl-1H-benzo[d][1,2,3]triazol-5-yl)oxy)phenyl)amino)pyrimido[5,4-d]pyrimidin-2-yl)-2-azaspiro[3.3]heptan-6-yl)acrylamide]
50 to 100 nM	100 to 500 nM	Cc1c(Oc2ccc3c(c2)nnn3C)ccc(Nc2ncnc3ccc(N4CCN(C(=O)/C=C/CF)[C@H](C)C4)nc23)c1F [Compound 360, (R,E)-4-fluoro-1-(4-(4-((2-fluoro-3-methyl-4-((1-methyl-1H-benzo[d][1,2,3]triazol-5-yl)oxy)phenyl)amino)pyrido[3,2-d]pyrimidin-6-yl)-2-methylpiperazin-1-yl)but-2-en-1-one]
100 to 500 nM	100 to 500 nM	C=CC(=O)N1C[C@H]2CN(c3ncc4ncnc(Nc5ccc(Oc6ccc7c(c6)nnn7C)c(C)c5)c4n3)C[C@H]21 [Compound 243, cis-1-((1r,5s)-3-(8-((3-methyl-4-((1-methyl-1H-benzo[d][1,2,3]triazol-5-yl)oxy)phenyl)amino)pyrimido[5,4-d]pyrimidin-2-yl)-3,6-diazabicyclo[3.2.0]heptan-6-yl)prop-2-en-1-one]
100 to 500 nM	500 to 1000 nM	C=CC(=O)N1C2CCC1CC(c1ccc3ncnc(Nc4ccc(Oc5ccc6c(c5)nnn6C)c(C)c4)c3n1)C2 (stereo not shown) [Compound 397, 1-(3-(4-((3-methyl-4-((1-methyl-1H-benzo[d][1,2,3]triazol-5-yl)oxy)phenyl)amino)pyrido[3,2-d]pyrimidin-6-y1)-8-azabicyclo[3.2.1]octan-8-yl)prop-2-en-1-one trifluoroacetate]
100 to 500 nM	500 to 1000 nM	C=CC(=O)N1CCCN(c2ccc3ncnc(Nc4ccc(Oc5ccc6c(c5)nnn6C)c(C)c4)c3n2)CC1 [Compound 308, 1-(4-(4-((3-methyl-4-((1-methyl-1H-benzo[d][1,2,3]triazol-5-yl)oxy)phenyl)amino)pyrido[3,2-d]pyrimidin-6-yl)-1,4-diazepan-1-yl)prop-2-en-1-one]
100 to 500 nM	≥ 1000 nM	C=CC(=O)N1CCCN(c2ccc3ncnc(Nc4ccc(Oc5ccn6ncnc6c5)c(C)c4)c3n2)C[C@@H]1C [Compound 355, (S)-1-(4-(4-((4-([1,2,4]triazolo[1,5-a]pyridin-7-yloxy)-3-methylphenyl)amino)pyrido[3,2-d]pyrimidin-6-yl)-2-methyl-1,4-diazepan-1-yl)prop-2-en-1-one]
100 to 500 nM	≥ 1000 nM	C=C1CCN([C@@H]2CCN(c3ncc4ncnc(Nc5ccc(Oc6ccn7ncnc7c6)c(C)c5)c4n3)C2)C1=O [Compound 238, (R)-1′-(8-((4-([1,2,4]triazolo[1,5-a]pyridin-7-yloxy)-3-methylphenyl)amino)pyrimido[5,4-d]pyrimidin-2-yl)-3-methylene-[1,3′-bipyrrolidin]-2-one]

Second part, the compound before the results:

SMILES	IC50 (ErbB2 V777L)	IC50 (EGFR WT)
C=CC(=O)N1CCN(c2ncc3ncnc(Nc4ccc(Oc5ccc6c(c5)nnn6C)c(C)c4)c3n2)[C@H](C)C1 [Compound 17, (R)-1-(3-methyl-4-(8-((3-methyl-4-((1-methyl-1H-benzo[d][1,2,3]triazol-5-yl)oxy)phenyl)amino)pyrimido[5,4-d]pyrimidin-2-yl)piperazin-1-yl)prop-2-en-1-one]	100 to 500 nM	500 to 1000 nM
C=CC(=O)N1CCCN(c2ncc3ncnc(Nc4ccc(Oc5cc(F)c6c(c5)ncn6C)c(C)c4F)c3n2)CC1 [Compound 112, 1-(4-(8-((2-fluoro-4-((7-fluoro-1-methyl-1H-benzo[d]imidazol-5-yl)oxy)-3-methylphenyl)amino)pyrimido[5,4-d]pyrimidin-2-yl)-1,4-diazepan-1-yl)prop-2-en-1-one]	50 to 100 nM	< 50 nM
C=CC(=O)N1CCN(c2ncc3ncnc(Nc4ccc(Oc5ccc6c(c5)nnn6C)c(C)c4)c3n2)CC[C@H]1C [Compound 152, (R)-1-(7-methyl-4-(8-((3-methyl-4-((1-methyl-1H-benzo[d][1,2,3]triazol-5-yl)oxy)phenyl)amino)pyrimido[5,4-d]pyrimidin-2-y1)-1,4-diazepan-1-yl)prop-2-en-1-one]	500 to 1000 nM	≥ 1000 nM
Cc1cc(Nc2ncnc3cnc(N4CCN(C(=O)/C=C/CO)CC4)nc23)ccc1Oc1ccc2c(c1)nnn2C [Compound 57, (E)-4-hydroxy-1-(4-(8-((3-methyl-4-((1-methyl-1H-benzo[d][1,2,3]triazol-5-yl)oxy)phenyl)amino)pyrimido [5,4-d]pyrimidin-2-yl)piperazin-1-yl)but-2-en-1-one]	100 to 500 nM	100 to 500 nM
C=CC(=O)N1CCN(c2ncc3ncnc(Nc4ccc(Oc5ccc6c(c5)nnn6C)c(C)c4)c3n2)C[C@@H]1C1CC1 [Compound 117, (S)-1-(2-cyclopropyl-4-(8-((3-methyl-4-((1-methyl-1H-benzo[d][1,2,3]triazol-5-yl)oxy)phenyl)amino)pyrimido[5,4-d]pyrimidin-2-yl)piperazin-1-yl)prop-2-en-1-one]	100 to 500 nM	≥ 1000 nM
C=CC(=O)N1CCN(c2ncc3ncnc(Nc4ccc(Oc5ccc6c(c5)nnn6C)c(C)c4F)c3c2F)CC1 [Compound 103, 1-(4-(5-fluoro-4-((2-fluoro-3-methyl-4-((1-methyl-1H-benzo[d][1,2,3]triazol-5-yl)oxy)phenyl)amino)pyrido[3,4-d]pyrimidin-6-yl)piperazin-1-yl)prop-2-en-1-one]	100 to 500 nM	100 to 500 nM
C=CC(=O)N1CCN(c2ncc3ncnc(Nc4ccc(Oc5cc6nnn(C)c6c(C)c5F)c(C)c4F)c3n2)C[C@H]1C [Compound 180, (R)-1-(4-(8-((2-fluoro-4-((6-fluoro-1,7-dimethyl-1H-benzo[d][1,2,3]triazol-5-yl)oxy)-3-methylphenyl)amino)pyrimido[5,4-d]pyrimidin-2-y1)-2-methylpiperazin-1-yl)prop-2-en-1-one]	50 to 100 nM	50 to 100 nM
C=CC(=O)N1CCN(c2ncc3ncnc(Nc4ccc(Oc5cnc6c(c5)ncn6C)c(C)c4F)c3n2)C[C@H]1C [Compound 158, (R)-1-(4-(8-((2-fluoro-3-methyl-4-((3-methyl-3H-imidazo[4,5-b]pyridin-6-yl)oxy)phenyl)amino)pyrimido[5,4-d]pyrimidin-2-y1)-2-methylpiperazin-1-yl)prop-2-en-1-one]	100 to 500 nM	100 to 500 nM
C=CC(=O)N1CCN(c2ncc3ncnc(Nc4ccc(Oc5ccc6c(c5)nnn6C)c(C)c4)c3n2)C[C@@H]1C [Compound 2, (S)-1-(2-methyl-4-(8-((3-methyl-4-((1-methyl-1H-benzo[d][1,2,3]triazol-5-yl)oxy)phenyl)amino)pyrimido[5,4-d]pyrimidin-2-y1)piperazin-1-yl)prop-2-en-1-one]	50 to 100 nM	100 to 500 nM
C=CC(=O)N1CC[C@@H]2CN(c3ncc4ncnc(Nc5ccc(Oc6ccc7c(c6)nnn7C)c(C)c5)c4n3)C[C@@H]21 [Compound 150, 1-((3aR,6aR)-5-(8-((3-methyl-4-((1-methyl-1H-benzo[d][1,2,3]triazol-5-yl)oxy)phenyl)amino)pyrimido[5,4-d]pyrimidin-2-yl)hexahydropyrrolo[3,4-b]pyrrol-1(2H)-yl)prop-2-en-1-one]	100 to 500 nM	500 to 1000 nM
Cc1cc(Nc2ncnc3cnc(N4CCN(C(=O)/C=C/CN5CCCC5)CC4)nc23)ccc1Oc1ccc2c(c1)nnn2C [Compound 52, (E)-1-(4-(8-((3-methyl-4-((1-methyl-1H-benzo[d][1,2,3]triazol-5-yl)oxy)phenyl)amino)pyrimido [5,4-d]pyrimidin-2-yl)piperazin-1-y169yrrolidineolidin-1-yl)but-2-en-1-one]	50 to 100 nM	< 50 nM
C=CC(=O)N1CCN(c2ncc3ncnc(Nc4ccc(Oc5ccc6c(c5)nnn6C)c(C)c4)c3n2)C[C@H]1CC [Compound 119, (R)-1-(2-ethyl-4-(8-((3-methyl-4-((1-methyl-1H-benzo[d][1,2,3]triazol-5-yl)oxy)phenyl)amino)pyrimido[5,4-d]pyrimidin-2-y1)piperazin-1-yl)prop-2-en-1-one]	100 to 500 nM	500 to 1000 nM
C=CC(=O)N1C2CCC1CN(c1ccc3ncnc(Nc4cc(C)c(Oc5ccc6c(c5)nnn6C)cc4OC)c3n1)C2 [Compound 80, 1-(3-(4-((2-methoxy-5-methyl-4-((1-methyl-1H-benzo[d][1,2,3]triazol-5-yl)oxy)phenyl)amino)pyrido[3,2-d]pyrimidin-6-yl)-3,8-diazabicyclo[3.2.1]octan-8-yl)prop-2-en-1-one]	100 to 500 nM	100 to 500 nM
C=CC(=O)N1CC2CN(c3ncc4ncnc(Nc5ccc(Oc6ccc7c(c6)nnn7C)c(C)c5)c4n3)CC2C1 (stereo not shown) [Compound 27, 1-(5-(8-((3-methyl-4-((1-methyl-1H-benzo[d][1,2,3]triazol-5-yl)oxy)phenyl)amino)pyrimido[5,4-d]pyrimidin-2-yl)hexahydropyrrolo[3,4-c]pyrrol-2(1H)-y1)prop-2-en-1-one]	100 to 500 nM	≥ 1000 nM
